In US20030035851A1, “Anti-cancer agents and method of use thereof” (priority 2001, published 2003):
In brackets after ≈: the same amount, converted by molar mass.

Legend:
LNCaP and DU-145 = experiment: Cell growth inhibition of LNCaP and DU-145 by DES (FIG. 14); type: cell-based; details: previous study
LNCaP cell cycle = experiment: Cell cycle distribution by DNA flow cytometry, LNCaP; type: cell-based, Human; design: cells arrested in the G1 phase: dose or concentration left out as unconfirmed
Source text: The cell cycle is the program for cell growth and cell proliferation (cell division). There are four phases of the cell cycle: G1, S, G2, and M. The G1 phase is characterized by gene expression and protein synthesis, and is regulated primarily by extracellular stimuli. During the S phase, the cell replicates its DNA. During the G2 phase, the cell undergoes growth and protein synthesis in preparation for cell division. The M phase is characterized by cytokinesis of the cell into two daughter cells.
The effect of oridonin and lupulone on LNCaP cells was determined by the following method. 2×10^6-4×10^6 cultured cells were exposed to varying concentrations (e.g., 1.5 microgram/milliliter (ug/ml)-3 ug/ml) of oridonin or lupulone for 24-48 hours in 12.5 cm^2 area flasks before being harvested. The cells were washed with phosphate buffered saline (PBS) and fixed in ice-cold 70% ethanol.
The distribution of cells in various stages of the cell cycle were determined by first staining the cells with the DNA specific fluorochrome, and then by measuring cellular DNA content with an ELITE ESP flow cytometer (Coulter Inc., Fl.) using UV laser illumination. The Multicycle program (Phoenix Flow Systems) was used to deconvolute the DNA frequency histograms to estimate the frequency of cells in different phases of the cell cycle, and those in apoptosis.

DU-145 cell cycle = experiment: Cell cycle distribution by DNA flow cytometry, DU-145; type: cell-based; details: for cell cycle arrest phase / increase in the number of cells arrested in the S phase compared to the control / cells arrested in the G2M phase: DU-145; for increase in the number of cells arrested in the S phase compared to the control: FIG. 6
MCF-7 cells = experiment: MTT cell proliferation assay, MCF-7; type: cell-based; details: for ED50 values from MTT Assay, MCF-7: concentration giving 50% inhibition of cancer cell growth, 72 hours, linear interpolation of FIGS. 1-3
Method: (§1) The cells were routinely seeded at 1×10^5 cells/ml in T-75 flasks, allowed to attach overnight, and then treated with the oridonin or the lupulone. At different times, the cells were harvested by trypsinization.
(§2) The inhibitory effect on a cell's ability to divide was determined by an MTT (3-(4,5-dimethylthiazol-2-yl)-2,5-diphenyl tetrazolium bromide) assay. The assay reagents were purchased from Boehringer Mannheim (Roche Diagnosis Corp, Indianapolis, Ind.). […] The MTT assay provides a method whereby cell proliferation can be determined by […]. The protocol for the cell viability assay was provided by Boehringer Mannheim and modified as described below.
(§3) The cells were then incubated at […] and allowed to attach to the plates. After 24 hours, 20 microliter aliquots having varying concentrations of oridonin or lupulone were added to the cell culture. Each aliquot was plated into 3 wells to obtain mean values. […] The plates were incubated at 37° C. in a CO2 incubator for 72 hours. After 72 hours, the culture medium was carefully removed without disturbing the cells and replaced by 100 microliters of fresh cell medium. 10 microliters of MTT was added to each well and the plates were incubated in the CO2 incubator at 37° C. for 4 hours. Afterwards, 100 microliters of sodium dodecylsulfate (SDS) solubilizing reagent (from Boehringer Mannheim) was added to each well. The plates were placed in the CO2 incubator at 37° C. for about 10-14 hours. Afterwards, the cell concentration of each plate was determined by an ELISA Reader (EL800, Bio-Tek Instruments, Inc.) at a wavelength of […]. The percent cell viability was calculated according to the equation below: [formula]
(§4) where V is the percent cell viability, Acontrol is the absorption of the control cells, and Atreated is the absorption of the treated cells.

MCF-7 cell cycle = experiment: Cell cycle distribution by DNA flow cytometry, MCF-7; type: cell-based; details: for cells arrested in the G1 phase: FIG. 7
LNCaP cells [1] = experiment: MTT cell proliferation assay, LNCaP; type: cell-based, Human; details: for ED50 values from MTT Assay, LNCaP: concentration giving 50% inhibition of cancer cell growth, 72 hours, linear interpolation of FIGS. 1-3
Method: as §1, §2, §3, §4

DU-145 cells = experiment: MTT cell proliferation assay, DU-145; type: cell-based; details: for ED50 values from MTT Assay, DU-145: concentration giving 50% inhibition of cancer cell growth, 72 hours, linear interpolation of FIGS. 1-3
Method: as §1, §2, §3, §4

[2] = test system: Bax and Bcl-2 protein expression; experiment: Western blot of Bax and Bcl-2 in LNCaP; type: cell-based, Human; details: 8.24 uM and 13.74 uM of oridonin, 48 hours, FIG. 11
Method: To determine the Bcl-2:Bax ratio in oridonin-incubated LNCaP cells, a Western blotting procedure was performed. LNCaP cells were prepared such that one sample contained was incubated in the absence of oridonin, another sample in 8.24 uM of oridonin, and another sample in 13.74 uM of oridonin. The samples were incubated for 48 hours. Equal amounts of protein (10 micrograms) from LNCaP cell lysates were applied to a 10% SDS/PAGE (sodium dodecylsulfate/polyacrylamide gel electrophoresis) gel, and were then transferred to a PVDF membrane. The blots were probed with one of two primary antibodies comprising 1:100 Anti-Bax YTH-2D2 (Lot#3148E0, R&D, MN USA), and 1:100 Bcl-2 Oncoprotein (Clone 124, No. M0887), followed by second antibody exposure of 1:1000 Anti-mouse IgG-HRP (se-2005, Santa Cruz Biotechnology, USA) for 1 hour at […] temp. The immuno-binding signals were detected by the chemiluminescence method (ECL Western blotting system). The experiments were run in triplicates.

Bcl-2 = experiment: Flow cytometric measurement of Bcl-2 protein in LNCaP; type: cell-based, Human; details: 8.24 uM oridonin, flow cytometry, CTRL 11.3
Method: To further verify the increase in Bax and the decrease in Bcl-2 proteins, and to determine the p53 protein levels induced by oridonin, flow cytometric measurement was performed to compare the results as obtained by Western blot. Following treatment with 3-9 μM of oridonin for 48 h, the LNCaP cells were trypsinized and washed with PBS. The cells were fixed in 1% formaldehyde in PBS on ice for 10 minutes and then permeabilized with 70% ethanol at −20° C. After fixation, the cells were rinsed with PBS, treated with a blocking solution containing 1% (w/v) bovine serum albumin (BSA) and 0.1% sodium azide in PBS (PBS-BSA) for 2 min at room temperature. […] The secondary antibody was added at 1:50 dilution for 30 minutes at room temperature in the dark, then counterstained for DNA by the addition of 1 ml of PI […] solution (final PI concentration 5 μg/ml) containing 100 μg/ml of RNAse A. Cellular fluorescence was measured with the ELITE ESP flow cytometer/cell sorter (Coulter Inc., Miami, Fla.) using the argon ion laser (emission at 488 nm). Fluorescence signals were collected using the standard configuration of the flow cytometer (green fluorescence for antibodies containing Bcl-2, Bax, and p53, and red fluorescence for DNA staining). 10,000 cells were analyzed per sample.

p53 = experiment: Flow cytometric measurement of p53 protein in LNCaP; type: cell-based, Human; details: for increase in p53 concentration: FIG. 12
Method: (§5) To further verify the increase in Bax and the decrease in Bcl-2 proteins, and to determine the p53 protein levels induced by oridonin, flow cytometric measurement was performed to compare the results as obtained by Western blot. Following treatment with 3-9 μM of oridonin for 48 h, the LNCaP cells were trypsinized and washed with PBS. The cells were fixed in 1% formaldehyde in PBS on ice for 10 minutes and then permeabilized with 70% ethanol at −20° C. After fixation, the cells were rinsed with PBS, treated with a blocking solution containing 1% (w/v) bovine serum albumin (BSA) and 0.1% sodium azide in PBS (PBS-BSA) for 2 min at room temperature. The cells were subsequently added to a 100 μl aliquot of BSA/PBS solution containing 1:50 diluted primary antibody for Bcl-2, Bax (stained LNCaP) and p53. The mixtures were incubated at room temperature in the dark for 1 hr. The cells were subsequently washed twice with PBS-BSA buffer. The secondary antibody was added at 1:50 dilution for 30 minutes at room temperature in the dark, then counterstained for DNA by the addition of 1 ml of PI […] solution (final PI concentration 5 μg/ml) containing 100 μg/ml of RNAse A. Cellular fluorescence was measured with the ELITE ESP flow cytometer/cell sorter (Coulter Inc., Miami, Fla.) using the argon ion laser (emission at 488 nm). Fluorescence signals were collected using the standard configuration of the flow cytometer (green fluorescence for antibodies containing Bcl-2, Bax, and p53, and red fluorescence for DNA staining). 10,000 cells were analyzed per sample.

LNCaP cells [3] = experiment: TdT DNA strand break apoptosis assay, LNCaP; type: cell-based, Human; details: oridonin 13.7uM, 48 hours, FIG. 13
Method: To determine apoptosis in cells, a quantitative assay for the detection of DNA breakage, using the terminal deoxyribonucleotide transferase (TdT) color reaction assay (TiterTACS, Trevigen, Gaithersburg, Md.), was employed. Cells were fixed in 1% ice-cold formaldehyde for 15 minutes and postfixed in 70% ethanol overnight at −20° C. DNA strand breaks were directly labeled with fluorescent (2′-deoxyuridine 5′-triphosphate) dUTP in the reaction catalyzed by exogenous terminal deoxynucleotidyltransferase using the APO-Direct kit (Phoenix Flow System, San Diego, Calif.) according to the protocol provided with the kit. The green (FITC) and red (PI) fluorescence intensities of cells subjected to labeling DNA strand breaks with the use of TdT were measured using a FACScan Flow Cytometer (Becton Dickinson Immunocytometry Systems, San Jose, Calif.). The data from 10^4 cells per sample were collected, stored and analyzed using CELL Quest software (Becton Dickinson and Co.).

Bax = experiment: Flow cytometric measurement of Bax protein in LNCaP; type: cell-based, Human; details: flow cytometry
Method: as §5

[4] = about 100 ug/ml of lupulone, FIG. 2
[5] = about 5 ug/ml of oridonin, FIG. 1

CC/C(=C(/CC)c1ccc(O)cc1)c1ccc(O)cc1 [DES, reference compound]
times more sensitive in inhibiting LNCaP than in inhibiting DU-145 (LNCaP and DU-145): about 2.5 times | cell cycle arrest phase (LNCaP cell cycle; DES (30 μM per FIG. 15 legend)): G2M phase arrest | cell cycle arrest phase (DU-145 cell cycle; DES): G2M phase arrest

CC(C)=CCC1=C(O)C(CC=C(C)C)(CC=C(C)C)C(=O)C(C(=O)CC(C)C)=C1O [Lupulone, lupulone]
proliferation decreased compared to the control (MCF-7 cells; about 100 ug/ml of lupulone, FIG. 3): more than 85% | ED50 values from MTT Assay, MCF-7 (MCF-7 cells): 56.62 µg/mL (≈ 137 µM) | effect on cell cycle (MCF-7 cell cycle; 60 micromolar (25 microgram/milliliter)): G1 phase arrest | effect on cell proliferation (MCF-7 cell cycle; 120 micromolar (50 microgram/milliliter)): complete block of cell proliferation | proliferation decreased compared to the control (LNCaP cells [1]; [4]): more than 75% | ED50 values from MTT Assay, LNCaP (LNCaP cells [1]): 36.53 µg/mL (≈ 88.1 µM) | increase of cells arrested in the G2M phase compared to cells not exposed (LNCaP cell cycle; lupulone (50 μg per FIG. 5 legend)): about 100% | proliferation decreased compared to the control (DU-145 cells; [4]): more than 55% | ED50 values from MTT Assay, DU-145 (DU-145 cells): 89.7 µg/mL (≈ 216 µM)

oridonin
ED50 values from MTT Assay, MCF-7 (MCF-7 cells): 1.71 µg/mL | absorbance reading of MTT (MCF-7 cells; under 15 ug/ml of oridonin, FIG. 3): 0 | cells arrested in the G1 phase (MCF-7 cell cycle; 25 ug/ml): about 35% | cells arrested in the G1 phase (MCF-7 cell cycle; 50 ug/ml): about 90% | proliferation reduced over that of the control (LNCaP cells [1]; [5]): about 75% | ED50 values from MTT Assay, LNCaP (LNCaP cells [1]): 2.11 µg/mL | ratio of Bax/Bcl-2 by Western blot [2]: increased significantly | more cells arrested in the G1 phase compared to cells not exposed (LNCaP cell cycle; 3 ug/ml of oridonin, FIG. 5): over 25% | cell cycle arrest phase (LNCaP cell cycle; oridonin): G1 cell cycle arrest | cells in the G1 phase of the cell cycle (LNCaP cell cycle; oridonin 3 μg/ml, 24 hr, FIG. 4): over 65% | cells arrested in the G1 phase (LNCaP cell cycle; oridonin, FIG. 9b): about 68% | proliferation decreased over that of the control (DU-145 cells; [5]): more than 80% | ED50 values from MTT Assay, DU-145 (DU-145 cells): 3.03 µg/mL | Bcl-2 (Bcl-2): 7.9 | cells arrested in the G1 phase (DU-145 cell cycle; DU-145 (so in the source), about 8.20 uM-22 uM of oridonin, FIG. 10): over 60% | increase in the number of cells arrested in the S phase compared to the control (DU-145 cell cycle; 1.5 ug/ml of oridonin): ~16% | increase in the number of cells arrested in the S phase compared to the control (DU-145 cell cycle; 3.0 ug/ml of oridonin): about 30% | cells arrested in the G2M phase (DU-145 cell cycle; FIG. 9d): about 37% | cells arrested in the G2M phase (DU-145 cell cycle; about 8.20 uM-22 uM of oridonin, FIG. 10): 30-55% | cell cycle arrest phase (DU-145 cell cycle; oridonin): G2M arrest | increase in p53 concentration (p53; 8.2 uM of oridonin): Approximately 40% | increase in the ratio of p53/Bcl-2 (p53; 8.24uM oridonin, flow cytometry): 100% | p53/Bcl-2 (p53; 8.24 uM oridonin, flow cytometry, CTRL 1): 2.0 | p53 (p53; 8.24 uM oridonin, flow cytometry, CTRL 8.8): 12.3 | increase in p53 concentration (p53; 13.74 uM of oridonin): ~100% | cell apoptosis (LNCaP cells [3]): About 6% | increase in the ratio of Bax/Bcl-2 (Bax; 8.24uM of oridonin): ~75% | Bax/Bcl-2 (Bax; 8.24 uM oridonin, CTRL 1): 1.8 | Bax (Bax; 8.24 uM oridonin, CTRL 11.8): 14.5
